Reference: patent US20140256756A1, “PIPERIDINYL-SUBSTITUTED LACTAMS AS GPR119 MODULATORS” (Array BioPharma Inc., priority 2011, published 2014)
Counter-ions that a name gives are not always drawn.

Test system: modified version of the GPR119 receptor (94% identity to human receptor)
Test: cAMP production assay (LANCE cAMP kit, TR-FRET) in HEK-293 cells
Assay type: cell-based
Details: for cAMP production in HEK-293 cells: HEK-293 cells stably expressing modified GPR119, test compounds 0.2 nM to 10 μM, one-hour incubation; for Fold over baseline: increase in cAMP relative to basal levels, agonist activity if 1.5-fold or greater
Description: The assay utilized HEK-293 cells that stably express a modified version of the GPR119 receptor (94% identity to human receptor), under the control of a CMV promoter containing a tet-on element for tetracycline-inducible expression. GPR119 agonist-induced cyclic AMP (cAMP) production was measured in this cell line using the LANCE cAMP kit (Perkin Elmer, Waltham, Mass.). To generate a working stock of cells for the assay, cells were treated overnight with 1 μg/mL doxycycline at 37° C. in the presence of 5% CO2 to induce receptor expression. Cells were then harvested by enzymatic dissociation with 0.05% trypsin, resuspended in freezing medium (DMEM growth medium with 10% each of fetal bovine serum and DMSO), aliquoted and frozen at −80° C. On the day of the assay, frozen cells were thawed, washed 1× in PBS and resuspended in Hank's buffered salt solution (HBSS) containing 5 mM HEPES, 0.1% BSA and Alexa Fluor 647-conjugated anti-cAMP antibody (diluted 1:100). The cell suspension was then transferred to a Proxiplate Plus white 384-well assay plate (Perkin-Elmer) at 2000 cells/well. Test compounds at final concentrations ranging from 0.2 nM to 10 μM were added to the assay plate, followed by a one-hour incubation at ambient temperature (volume=10 μL/well). DMSO concentration was held constant at 0.5%. After incubation with test compounds, 10 μL, of a detergent buffer containing a biotinylated cAMP/Europium-conjugated streptavidin complex (Europium-labeled cAMP tracer) were added to each well on the assay plate, followed by a 2-hour incubation at ambient temperature. During this incubation cAMP released from lysed cells competes with the Europium-labeled cAMP tracer for binding to the Alexa Fluor 647-conjugated antibody. […] Cellular cAMP levels were then determined by interpolation of raw signal data using a cAMP standard curve. Compounds were determined to have agonist activity if they stimulated a 1.5-fold or greater increase in cAMP relative to basal levels.

Structure (SMILES)	cAMP production in HEK-293 cells	Fold over baseline
CSc1ccc(OC2CCN(C3CCN(c4nc(C(C)C)ns4)CC3)C2=O)cc1 (stereo not drawn) [Example 32, 1-(1-(3-Isopropyl-1,2,4-thiadiazol-5-yl)piperidin-4-yl)-3-(4-(methylthio)phenoxy)pyrrolidin-2-one]	17.8 nmol	2.7
Cn1nccc1-c1nsc(N2CCC(N3CC[C@H](Oc4ccc(S(C)(=O)=O)cc4F)C3=O)CC2)n1 [Example 72, (S)-3-(2-fluoro-4-(methylsulfonyl)phenoxy)-1-(1-(3-(1-methyl-1H-pyrazol-5-yl)-1,2,4-thiadiazol-5-yl)piperidin-4-yl)pyrrolidin-2-one]	10.6 nmol	2.9
CC(C)c1nsc(N2CCC(N3CC[C@H](Oc4ccc(S(C)(=O)=O)nc4)C3=O)CC2)n1 [Example 94, (S)-1-(1-(3-isopropyl-1,2,4-thiadiazol-5-yl)piperidin-4-yl)-3-((6-(methylsulfonyl)pyridin-3-yl)oxy)pyrrolidin-2-one]	28.1 nmol	4.0
Cc1cc(S(C)(=O)=O)cnc1N[C@H]1CCN(C2CCN(c3nc(C(C)C)ns3)CC2)C1=O [Example 17, (S)-1-(1-(3-isopropyl-1,2,4-thiadiazol-5-yl)piperidin-4-yl)-3-(3-methyl-5-(methylsulfonyl)pyridin-2-ylamino)pyrrolidin-2-one]	11.2 nmol	2.1
CC(C)c1nsc(N2CCC(N3CC[C@H](Oc4ccc(S(C)(=O)=O)c(Cl)c4)C3=O)CC2)n1 [Example 54, (S)-3-(3-chloro-4-(methylsulfonyl)phenoxy)-1-(1-(3-isopropyl-1,2,4-thiadiazol-5-yl)piperidin-4-yl)pyrrolidin-2-one]	17.2 nmol	3.6
CCS(=O)(=O)c1ccc(OC2CCN(C3CCN(c4nc(-c5ccccc5)ns4)CC3)C2=O)c(F)c1 (stereo not drawn) [Example 67, 3-(4-(ethylsulfonyl)-2-fluorophenoxy)-1-(1-(3-phenyl-1,2,4-thiadiazol-5-yl)piperidin-4-yl)pyrrolidin-2-one]	14.0 nmol	2.3
Cc1cc(O[C@H]2CCN(C3CCN(c4nc(C(C)C)ns4)CC3)C2=O)c(F)cc1S(C)(=O)=O [Example 58, (S)-3-(2-fluoro-5-methyl-4-(methylsulfonyl)phenoxy)-1-(1-(3-isopropyl-1,2,4-thiadiazol-5-yl)piperidin-4-yl)pyrrolidin-2-one]	48.4 nmol	4.9
COC(C)(C)c1nsc(N2CCC(N3CC[C@H](Oc4cc(F)c(S(C)(=O)=O)cc4F)C3=O)CC2)n1 [Example 39, (S)-3-(2,5-difluoro-4-(methylsulfonyl)phenoxy)-1-(1-(3-(2-methoxypropan-2-yl)-1,2,4-thiadiazol-5-yl)piperidin-4-yl)pyrrolidin-2-one]	22.4 nmol	3.7
Cc1nnc(-c2ccc(O[C@H]3CCN(C4CCN(c5nc(C(C)C)ns5)CC4)C3=O)c(F)c2)o1 [Example 43, (S)-3-(2-fluoro-4-(5-methyl-1,3,4-oxadiazol-2-yl)phenoxy)-1-(1-(3-isopropyl-1,2,4-thiadiazol-5-yl)piperidin-4-yl)pyrrolidin-2-one]	29.4 nmol	7.4
CS(=O)(=O)c1ccc(O[C@H]2CCN(C3CCN(c4nc(-n5cccn5)ns4)CC3)C2=O)c(F)c1 [Example 42, (S)-1-(1-(3-(1H-pyrazol-1-yl)-1,2,4-thiadiazol-5-yl)piperidin-4-yl)-3-(2-fluoro-4-(methylsulfonyl)phenoxy)pyrrolidin-2-one]	12.0 nmol	2.5
CS(=O)(=O)c1cc(F)c(N[C@H]2CCN(C3CCN(c4nc(C(F)(F)F)ns4)CC3)C2=O)c(F)c1 [Example 88, (S)-3-(2,6-difluoro-4-(methylsulfonyl)phenylamino)-1-(1-(3-(trifluoromethyl)-1,2,4-thiadiazol-5-yl)piperidin-4-yl)pyrrolidin-2-one]	11.8 nmol	3.0
CC(C)c1nsc(N2CCC(N3CC[C@H](Oc4ccc(S(C)(=O)=O)cc4F)C3=O)CC2)n1 [Example 50, (S)-3-(2-fluoro-4-(methylsulfonyl)phenoxy)-1-(1-(3-isopropyl-1,2,4-thiadiazol-5-yl)piperidin-4-yl)pyrrolidin-2-one]	15.1 nmol	5.6
CC(C)c1nsc(N2CCC(N3CC[C@H](Nc4ccc(S(C)(=O)=O)cc4Cl)C3=O)CC2)n1 [Example 12, (S)-3-(2-chloro-4-(methylsulfonyl)phenylamino)-1-(1-(3-isopropyl-1,2,4-thiadiazol-5-yl)piperidin-4-yl)pyrrolidin-2-one]	17.5 nmol	3.9
CS(=O)(=O)c1cc(F)c(N[C@H]2CCN(C3CCN(c4nc(C(F)(F)F)ns4)CC3)C2=O)cc1F [Example 89, (S)-3-(2,5-difluoro-4-(methylsulfonyl)phenylamino)-1-(1-(3-(trifluoromethyl)-1,2,4-thiadiazol-5-yl)piperidin-4-yl)pyrrolidin-2-one]	15.1 nmol	3.8
Cc1ncccc1Oc1nsc(N2CCC(N3CC[C@H](Oc4ccc(S(C)(=O)=O)cc4F)C3=O)CC2)n1 [Example 76, (S)-3-(2-fluoro-4-(methylsulfonyl)phenoxy)-1-(1-(3-(2-methylpyridin-3-yloxy)-1,2,4-thiadiazol-5-yl)piperidin-4-yl)pyrrolidin-2-one]	5.7 nmol	2.5
CCS(=O)(=O)c1ccc(NC2CCN(C3CCN(c4nc(C(C)C)ns4)CC3)C2=O)cc1C (stereo not drawn) [Example 19, 3-(4-(Ethylsulfonyl)-3-methylphenylamino)-1-(1-(3-isopropyl-1,2,4-thiadiazol-5-yl)piperidin-4-yl)pyrrolidin-2-one]	16.4 nmol	2.4
CS(=O)(=O)c1cc(F)c(OC2CCN(C3CCN(c4nc(-c5ccccc5)ns4)CC3)C2=O)cc1F (stereo not drawn) [Example 48, 3-(2,5-difluoro-4-(methylsulfonyl)phenoxy)-1-(1-(3-phenyl-1,2,4-thiadiazol-5-yl)piperidin-4-yl)pyrrolidin-2-one trifluoroacetate]	20.5 nmol	3.3
COC(C)(C)c1nsc(N2CCC(N3CC[C@H](Nc4ccc(S(C)(=O)=O)cc4F)C3=O)CC2)n1 [Example 41, (S)-3-(2-fluoro-4-(methylsulfonyl)phenyl-amino)-1-(1-(3-(2-methoxypropan-2-yl)-1,2,4-thiadiazol-5-yl)piperidin-4-yl)pyrrolidin-2-one]	8.1 nmol	2.0
Cc1cc(S(C)(=O)=O)ccc1NC1CCN(C2CCN(c3nc(C(C)C)ns3)CC2)C1=O (stereo not drawn) [Example 21, 1-(1-(3-isopropyl-1,2,4-thiadiazol-5-yl)piperidin-4-yl)-3-(2-methyl-4-(methyl-sulfonyl)phenylamino) pyrrolidin-2-one]	13.0 nmol	3.3
CC(C)(C)c1nsc(N2CCC(N3CCC[C@H](Nc4c(F)cc(S(C)(=O)=O)cc4F)C3=O)CC2)n1 [Example 31]	7.6 nmol	1.9
CC(C)c1nsc(N2CCC(N3CCC(Oc4ccc(S(=O)(=O)c5ccccc5)cc4F)C3=O)CC2)n1 (stereo not drawn) [Example 62, 3-(2-Fluoro-4-(phenylsulfonyl)phenoxy)-1-(1-(3-isopropyl-1,2,4-thiadiazol-5-yl)piperidin-4-yl)pyrrolidin-2-one]	17.4 nmol	2.7
CCS(=O)(=O)c1ccc(OC2CCN(C3CCN(c4nc(C(C)C)ns4)CC3)C2=O)c(F)c1 (stereo not drawn) [Example 61, 3-(4-(ethylsulfonyl)-2-fluorophenoxy)-1-(1-(3-isopropyl-1,2,4-thiadiazol-5-yl)piperidin-4-yl)pyrrolidin-2-one]	23.5 nmol	3.5
CC(C)c1nsc(N2CCC(N3CC[C@H](Nc4ccc(S(=O)(=O)C5CC5)cc4F)C3=O)CC2)n1 [Example 4, (S)-3-(4-(cyclopropylsulfonyl)-2-fluorophenylamino)-1-(1-(3-isopropyl-1,2,4-thiadiazol-5-yl)piperidin-4-yl)pyrrolidin-2-one]	24.2 nmol	4.3
CC(C)c1nsc(N2CCC(N3CCC(Oc4ccc(C(=O)N(C)CCN)cc4F)C3=O)CC2)n1 (stereo not drawn) [Example 80, N-(2-aminoethyl)-3-fluoro-4-(1-(1-(3-isopropyl-1,2,4-thiadiazol-5-yl)piperidin-4-yl)-2-oxopyrrolidin-3-yloxy)-N-methylbenzamide]	16.1 nmol	2.8
